pIC50, pKi: −log10 of the molar value. Values after ≈ are worked out from the molar mass of the structure shown.
How the values were obtained:
Escherichia coli = assay: In vitro minimal inhibitory concentration against Escherichia coli was determined; type: functional
Bacillus subtilis = assay: In vitro minimal inhibitory concentration against Bacillus subtilis was determined; type: functional
Peptide deformylase [1] = target: T1, Peptide deformylase (Escherichia coli, UniProt Q9JN24); assay: Binding affinity against Co(II)-substituted Escherichia coli peptide deformylase was determined
T1 sequence (Q9JN24 whole entry): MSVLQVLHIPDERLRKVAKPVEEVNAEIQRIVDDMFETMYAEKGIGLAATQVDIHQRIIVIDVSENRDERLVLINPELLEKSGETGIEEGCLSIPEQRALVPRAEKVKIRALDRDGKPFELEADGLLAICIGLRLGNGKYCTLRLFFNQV

Peptide deformylase [2] = target: T1, Peptide deformylase; assay: Inhibitory concentration against peptide deformylase was determined

MIC (Escherichia coli)	MIC (Bacillus subtilis)	pKi (Peptide deformylase [1])	Structure (SMILES)	pIC50 (Peptide deformylase [2])
32 µM (≈ 11.8 µg/mL)	4 µM (≈ 1.48 µg/mL)	9.17	CC(C)(C)[C@@H]1NC(=O)C(CN(O)C=O)CCCCCCCCCNC1=O (some centres undefined)	
			CCCCC(CN(O)C=O)C(=O)N[C@H](C(=O)N(C)C)C(C)(C)C (some centres undefined)	8.15

Source: ChEMBL document CHEMBL1145063, “Structure-based design of a macrocyclic inhibitor for peptide deformylase” (J Med Chem, 2003)
